According to ChEMBL document CHEMBL2086355, “Synthesis and SAR of 2',3'-bis-O-substituted N(6), 5'-bis-ureidoadenosine derivatives: implications for prodrug delivery and mechanism of action” (Bioorg Med Chem Lett, 2012):
Converted amounts (≈) assume the structure as drawn.

Columns and labels:
[1] = test system: CCRF-CEM; assay: Antiproliferative activity against human CEM cells after 72 hrs by Coulter counting analysis; assay type: functional, cell-based
[2] = test system: HeLa; assay: Antiproliferative activity against human HeLa cells after 96 hrs by Coulter counting analysis; assay type: functional, cell-based
[3] = test system: L1210; assay: Antiproliferative activity against mouse L1210 cells after 48 hrs by Coulter counting analysis; assay type: functional, cell-based; settings: L1210, 48 h
[4] = test system: FM3A; assay: Antiproliferative activity against mouse FM3A cells after 48 hrs by Coulter counting analysis; assay type: functional, cell-based
[5] = molecular target: Bone morphogenetic protein receptor type-1B (Homo sapiens) (UniProt O00238); assay: Inhibition of BMPR1b assessed as activity remaining at 10 uM by competitive binding inhibition assay
Sequence of Bone morphogenetic protein receptor type-1B (Homo sapiens) (O00238 whole entry): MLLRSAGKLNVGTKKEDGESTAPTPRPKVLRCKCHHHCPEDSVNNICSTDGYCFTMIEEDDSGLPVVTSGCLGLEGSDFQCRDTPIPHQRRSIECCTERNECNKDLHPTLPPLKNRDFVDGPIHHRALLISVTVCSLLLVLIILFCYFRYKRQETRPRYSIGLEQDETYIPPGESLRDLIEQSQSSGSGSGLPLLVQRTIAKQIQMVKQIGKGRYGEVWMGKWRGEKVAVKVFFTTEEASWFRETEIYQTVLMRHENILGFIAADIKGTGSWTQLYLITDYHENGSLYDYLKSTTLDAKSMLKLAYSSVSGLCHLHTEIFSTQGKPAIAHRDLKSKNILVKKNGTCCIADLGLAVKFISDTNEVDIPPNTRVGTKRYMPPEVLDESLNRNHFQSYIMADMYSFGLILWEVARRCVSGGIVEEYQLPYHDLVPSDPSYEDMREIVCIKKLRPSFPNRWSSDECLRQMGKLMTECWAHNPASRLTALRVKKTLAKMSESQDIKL

Compound	IC50 [1] [µg/mL]	IC50 [2] [µg/mL]	IC50 [3] [µg/mL]	Activity [5] [%]	IC50 [4] [µg/mL]
CNC(=O)NC[C@H]1O[C@@H](n2cnc3c(N)ncnc32)[C@H](OC(=O)C(C)C)[C@@H]1OC(=O)C(C)C	88 (≈ 190 µM)	99 (≈ 214 µM)	87 (≈ 188 µM)	–	107 (≈ 231 µM)
CNC(=O)NC[C@H]1O[C@@H](n2cnc3c(NC(=O)Nc4ccccc4)ncnc32)[C@H](OC(=O)c2ccccc2)[C@@H]1OC(=O)c1ccccc1	> 200	> 200	154 (≈ 237 µM)	100	61 (≈ 93.8 µM)
CNC(=O)NC[C@H]1O[C@@H](n2cnc3c(NC(=O)Nc4ccccc4)ncnc32)[C@H](OC(=O)C(C)C)[C@@H]1OC(=O)C(C)C	28 (≈ 48.1 µM)	73 (≈ 125 µM)	29 (≈ 49.8 µM)	100	44 (≈ 75.5 µM)
CCCCCCCCCCCCCCCC(=O)O[C@@H]1[C@H](OC(=O)CCCCCCCCCCCCCCC)[C@@H](CNC(=O)NC)O[C@H]1n1cnc2c(NC(=O)Nc3ccccc3)ncnc21	> 100	> 100	> 100	–	> 200
CNC(=O)NC[C@H]1O[C@@H](n2cnc3c(N)ncnc32)[C@H](OC(C)=O)[C@@H]1OC(C)=O	> 200	> 200	112 (≈ 275 µM)	–	> 200
CNC(=O)NC[C@H]1O[C@@H](n2cnc3c(NC(=O)Nc4ccccc4)ncnc32)[C@H](O[Si](C(C)C)(C(C)C)C(C)C)[C@@H]1O[Si](C(C)C)(C(C)C)C(C)C	142 (≈ 188 µM)	≥ 200	> 200	100	> 200
CC[Si](CC)(CC)O[C@@H]1[C@H](O[Si](CC)(CC)CC)[C@@H](CNC(=O)NC)O[C@H]1n1cnc2c(NC(=O)Nc3ccccc3)ncnc21	4.2 (≈ 6.26 µM)	3.7 (≈ 5.51 µM)	3.8 (≈ 5.66 µM)	100	3 (≈ 4.47 µM)
CNC(=O)NC[C@H]1O[C@@H](n2cnc3c(N)ncnc32)[C@H](OC(=O)c2ccccc2)[C@@H]1OC(=O)c1ccccc1	19 (≈ 35.7 µM)	40 (≈ 75.3 µM)	16 (≈ 30.1 µM)	–	36 (≈ 67.7 µM)
CNC(=O)NC[C@H]1O[C@@H](n2cnc3c(NC(=O)Nc4ccccc4)ncnc32)[C@H](OC(=O)C(C)(C)C)[C@@H]1OC(=O)C(C)(C)C	20 (≈ 32.8 µM)	17 (≈ 27.8 µM)	9.7 (≈ 15.9 µM)	–	15 (≈ 24.6 µM)
CNC(=O)NC[C@H]1O[C@@H](n2cnc3c(NC(=O)Nc4ccccc4)ncnc32)[C@H](O[Si](c2ccccc2)(c2ccccc2)C(C)(C)C)[C@@H]1O[Si](c1ccccc1)(c1ccccc1)C(C)(C)C	≥ 200	104 (≈ 113 µM)	> 200	100	> 200

Further lines, with some results ahead:

IC50 [1] [µg/mL]	IC50 [2] [µg/mL]	IC50 [3] [µg/mL]	Activity [5] [%]	Compound	IC50 [4] [µg/mL]
10 (≈ 15.7 µM)	15 (≈ 23.5 µM)	9.5 (≈ 14.9 µM)	–	CCCCCC(=O)O[C@@H]1[C@H](OC(=O)CCCCC)[C@@H](CNC(=O)NC)O[C@H]1n1cnc2c(NC(=O)Nc3ccccc3)ncnc21	20 (≈ 31.3 µM)
12 (≈ 17.3 µM)	16 (≈ 23 µM)	11 (≈ 15.8 µM)	–	CCCCCCCC(=O)O[C@@H]1[C@H](OC(=O)CCCCCCC)[C@@H](CNC(=O)NC)O[C@H]1n1cnc2c(NC(=O)Nc3ccccc3)ncnc21	32 (≈ 46.1 µM)
29 (≈ 49.8 µM)	58 (≈ 99.6 µM)	20 (≈ 34.3 µM)	–	CCCC(=O)O[C@@H]1[C@H](OC(=O)CCC)[C@@H](CNC(=O)NC)O[C@H]1n1cnc2c(NC(=O)Nc3ccccc3)ncnc21	18 (≈ 30.9 µM)
> 100	> 100	> 100	–	CCCCCCCCCC(=O)O[C@@H]1[C@H](OC(=O)CCCCCCCCC)[C@@H](CNC(=O)NC)O[C@H]1n1cnc2c(NC(=O)Nc3ccccc3)ncnc21	140 (≈ 186 µM)
107 (≈ 203 µM)	> 200	97 (≈ 184 µM)	95	CNC(=O)NC[C@H]1O[C@@H](n2cnc3c(NC(=O)Nc4ccccc4)ncnc32)[C@H](OC(C)=O)[C@@H]1OC(C)=O	150 (≈ 285 µM)
